# Source: PubChem BioAssay (NCI)
# Values joined by “and” are separate entries in the source; they are usually repeats but may differ in a detail not shown here. Identical values can stand only once.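 Protocol summary: plate cells (96-well), add compound at 5 concentrations, incubate 48 h, interpolate endpoints linearly. The concentration for 50% growth inhibition is given as GI50. The concentration for full growth arrest is given as TGI.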
# Assays:
# Assay in all cases: growth of human tumour cells (NCI), 48 h
# [1] = test system: A549 NSCLC
# [2] = test system: SF-539 CNS
# [3] = test system: EKVX NSCLC
# [4] = test system: HCT-15 colon
# [5] = test system: NCI-H226 lung
# [6] = test system: OVCAR-3 ovarian
# [7] = test system: ACHN renal
# [8] = test system: DU-145 prostate
# [9] = test system: IGROV1 ovarian
# [10] = test system: NCI/ADR-RES ovarian
# [11] = test system: M14 melanoma
# [12] = test system: SNB-75 CNS
# [13] = test system: CAKI-1 renal
# [14] = test system: OVCAR-4 ovarian
# [15] = test system: MDA-MB-231 breast
# [16] = test system: HT29 colon
# [17] = test system: HOP-92 NSCLC
# [18] = test system: U251 CNS
# [19] = test system: TK-10 renal
# [20] = test system: RXF 393 renal
# [21] = test system: SF-268 CNS
# [22] = test system: UO-31 renal
# [23] = test system: OVCAR-5 ovarian
# [24] = test system: SN12C renal
# [25] = test system: PC-3 prostate
# [26] = test system: KM12 colon
# [27] = test system: MDA-MB-435
# [28] = test system: SF-295 CNS
# [29] = test system: HCT-116 colon
# [30] = test system: OVCAR-8 ovarian
# [31] = test system: MDA-N
# [32] = test system: NCI-H23 lung
# [33] = test system: SNB-19 CNS
# [34] = test system: SW-620 colon
# [35] = test system: SK-MEL-5 melanoma
# [36] = test system: SK-OV-3 ovarian
# [37] = test system: CCRF-CEM leukemia
# [38] = test system: RPMI-8226 leukemia
# [39] = test system: LOX IMVI melanoma
# [40] = test system: BT-549 breast
# [41] = test system: COLO 205 colon
# [42] = test system: HL-60(TB) leukemia
# [43] = test system: UACC-257 melanoma
# [44] = test system: SK-MEL-28 melanoma
# [45] = test system: K-562 leukemia
# [46] = test system: UACC-62 melanoma
# [47] = test system: SK-MEL-2 melanoma
# [48] = test system: NCI-H460 lung
# [49] = test system: HCC-2998 colon
# [50] = test system: NCI-H522 lung
# [51] = test system: MALME-3M melanoma
# [52] = test system: HOP-62 NSCLC
# [53] = test system: MOLT-4 leukemia
# [54] = test system: 786-0 renal
# [55] = test system: T-47D breast
# [56] = test system: MCF7 breast
# [57] = test system: A498 renal
# [58] = test system: SR leukemia
# [59] = test system: HS 578T breast
compound,measurement,setting,value
CC1(C)CC(=O)C2=C(C1)OC1=C(C(=O)CC(C)(C)C1)C2CC(c1ccccc1)c1ccc(O)c(O)c1O (stereo not given),TGI,[1],> 10 µM
same,TGI,[2],> 10 µM
same,TGI,[3],> 10 µM
same,TGI,[4],> 10 µM
same,TGI,[5],> 10 µM
same,TGI,[6],> 10 µM
same,TGI,[7],> 10 µM
same,TGI,[8],> 10 µM
same,TGI,[9],> 10 µM
same,TGI,[10],> 10 µM
same,TGI,[11],> 10 µM
same,TGI,[12],> 10 µM
same,TGI,[13],> 10 µM
same,TGI,[14],> 10 µM
same,TGI,[15],> 10 µM
same,TGI,[16],> 10 µM
same,TGI,[17],> 10 µM
same,TGI,[18],> 10 µM
same,TGI,[19],> 10 µM
same,TGI,[20],> 10 µM
same,TGI,[21],> 10 µM
same,TGI,[22],> 10 µM
same,TGI,[23],> 10 µM
same,TGI,[24],> 10 µM
same,TGI,[25],> 10 µM
same,TGI,[26],> 10 µM
same,TGI,[27],> 10 µM
same,TGI,[28],> 10 µM
same,TGI,[29],> 10 µM
same,TGI,[30],> 10 µM
same,TGI,[31],> 10 µM
same,TGI,[32],> 10 µM
same,TGI,[33],> 10 µM
same,TGI,[34],> 10 µM
same,TGI,[35],> 10 µM
CC1/C=C/C=C/C=C/C=C/C=C/C=C/C=C/C(O[C@@H]2O[C@H](C)[C@H](O)[C@@H](O)[C@@H]2N)CC(O)C(C(=O)O)C(O)CC(=O)CC(O)CC(O)CC(O)CC(=O)CCCC(=O)CC(=O)OC1C(C)CC(C)C(O)CC(=O)c1ccc(N)cc1 (stereo not given in full),GI50,[1],0.0561 µM and 0.169 µM
same,TGI,[1],0.101 µM and 0.305 µM
same,GI50,[2],0.0604 µM and 0.481 µM
same,GI50,[3],0.0644 µM and 0.221 µM
same,TGI,[3],0.126 µM and 0.484 µM
same,GI50,[36],0.0674 µM and 0.298 µM
same,TGI,[36],0.119 µM and 0.908 µM
same,GI50,[37],0.0627 µM and 0.206 µM
same,TGI,[37],0.141 µM and 0.489 µM
same,GI50,[5],0.218 µM
same,TGI,[5],0.581 µM
same,GI50,[38],0.0748 µM and 0.238 µM
same,TGI,[38],0.171 µM and 0.682 µM
same,GI50,[6],0.0631 µM and 0.374 µM
same,GI50,[39],0.0555 µM and 0.166 µM
same,TGI,[39],0.101 µM and 0.305 µM
same,GI50,[40],0.213 µM
same,TGI,[40],0.444 µM
same,GI50,[7],0.057 µM and 0.18 µM
same,TGI,[7],0.106 µM and 0.319 µM
same,GI50,[41],0.559 µM
same,TGI,[41],1.72 µM
same,GI50,[42],0.0609 µM and 0.178 µM
same,TGI,[42],0.145 µM and 0.396 µM
same,GI50,[8],0.0687 µM and 0.335 µM
same,TGI,[8],0.148 µM and 1.06 µM
same,GI50,[9],0.0598 µM and 0.226 µM
same,TGI,[9],0.116 µM and 0.536 µM
same,GI50,[43],0.0544 µM and 0.233 µM
same,TGI,[43],0.101 µM and 0.612 µM
same,GI50,[44],0.0622 µM and 0.189 µM
same,TGI,[44],0.108 µM and 0.356 µM
same,GI50,[10],0.0626 µM and 0.209 µM
same,TGI,[10],0.125 µM and 0.474 µM
same,GI50,[45],0.0716 µM
same,TGI,[45],0.175 µM
same,GI50,[11],0.0574 µM and 0.197 µM
same,TGI,[11],0.11 µM and 0.416 µM
same,GI50,[12],0.0596 µM and 0.242 µM
same,TGI,[12],0.12 µM and 0.787 µM
same,GI50,[13],0.0583 µM and 0.186 µM
same,TGI,[13],0.107 µM and 0.357 µM
same,GI50,[46],0.0576 µM and 0.203 µM
same,TGI,[46],0.109 µM and 0.458 µM
same,GI50,[14],0.0693 µM and 0.246 µM
same,TGI,[14],0.154 µM and 0.697 µM
same,GI50,[15],0.0613 µM and 0.3 µM
same,TGI,[15],0.118 µM and 0.943 µM
same,GI50,[47],0.267 µM
same,TGI,[47],0.813 µM
same,GI50,[16],0.0585 µM and 0.345 µM
same,GI50,[48],0.0611 µM and 0.229 µM
same,TGI,[48],0.11 µM and 0.633 µM
same,GI50,[17],0.184 µM
same,TGI,[17],0.537 µM
same,GI50,[18],0.0552 µM and 0.204 µM
same,TGI,[18],0.0996 µM and 0.49 µM
same,GI50,[19],0.0573 µM and 0.315 µM
same,TGI,[19],0.104 µM and 0.983 µM
same,GI50,[49],0.058 µM and 0.302 µM
same,TGI,[49],0.104 µM and 1.03 µM
same,GI50,[50],0.0512 µM and 0.161 µM
same,TGI,[50],0.0986 µM and 0.314 µM
same,GI50,[51],0.0543 µM and 0.177 µM
same,TGI,[51],0.104 µM and 0.365 µM
same,GI50,[20],0.0469 µM and 0.156 µM
same,TGI,[20],0.0894 µM and 0.304 µM
same,GI50,[21],0.0565 µM and 0.202 µM
same,TGI,[21],0.102 µM and 0.409 µM
same,GI50,[22],0.0456 µM and 0.159 µM
same,TGI,[22],0.0882 µM and 0.328 µM
same,GI50,[23],0.0792 µM and 0.357 µM
same,TGI,[23],0.216 µM and 1.3 µM
same,GI50,[52],0.063 µM and 0.192 µM
same,TGI,[52],0.118 µM and 0.402 µM
same,GI50,[24],0.0586 µM and 0.174 µM
same,TGI,[24],0.114 µM and 0.317 µM
same,GI50,[25],0.0646 µM and 0.222 µM
same,TGI,[25],0.137 µM and 0.552 µM
same,GI50,[53],0.0679 µM and 0.172 µM
same,TGI,[53],0.143 µM and 0.402 µM
same,GI50,[26],0.0694 µM and 0.574 µM
same,GI50,[27],0.0597 µM and 0.208 µM
same,TGI,[27],0.108 µM and 0.438 µM
same,GI50,[28],0.0692 µM and 0.232 µM
same,TGI,[28],0.155 µM and 0.605 µM
same,GI50,[29],0.0581 µM and 0.219 µM
same,TGI,[29],0.103 µM and 0.485 µM
same,GI50,[30],0.0701 µM and 0.347 µM
same,TGI,[30],0.152 µM and 1.23 µM
same,GI50,[54],0.0591 µM and 0.172 µM
same,TGI,[54],0.111 µM and 0.346 µM
same,GI50,[55],0.0722 µM and 0.318 µM
same,TGI,[55],0.188 µM and 1.24 µM
same,GI50,[32],0.055 µM and 0.187 µM
same,TGI,[32],0.102 µM and 0.371 µM
same,GI50,[56],0.0797 µM and 0.422 µM
same,TGI,[56],0.173 µM and 1.59 µM
same,GI50,[57],0.0512 µM and 0.159 µM
same,TGI,[57],0.0948 µM and 0.32 µM
same,GI50,[58],0.0835 µM and 0.168 µM
same,TGI,[58],0.254 µM and 0.422 µM
same,GI50,[59],0.0765 µM and 0.329 µM
same,TGI,[59],0.211 µM and 1.58 µM
same,GI50,[33],0.066 µM and 0.279 µM
same,TGI,[33],0.147 µM and 1.09 µM
same,GI50,[34],0.0588 µM and 0.198 µM
same,TGI,[34],0.109 µM and 0.43 µM
same,GI50,[35],0.0522 µM and 0.212 µM
same,TGI,[35],0.0961 µM and 0.496 µM
